Reference: article PMC4550876, “Discovery of γ-Mangostin as an Amyloidogenesis Inhibitor” (Scientific Reports, 2015)

How the values were obtained:
V30M mutated TTR = target: T1, V30M mutated TTR (Homo sapiens, UniProt P02766, V50M); assay: Acid-mediated aggregation experiment (thioflavin T assay) of amyloid fibril formation; assay type: biochemical; details: 10 μM V30M; for EC50 / Inhibition ratio at 20 μM / inhibition at 20 µM: pH 4.5, 310 K, 96 h; for EC50: 0–20 μM compound, thioflavin T fluorescence; for Inhibition ratio at 20 μM / inhibition at 20 µM: 20 μM compound; for inhibition at 20 µM: read-out: Inhibition ratio at 20 μM
T1 construct: made in house
From the text: V30M mutated TTR (V30M), which is most commonly associated with FAP, was used in this study, along with the following commercially available compounds (Fig. 1 and Table 1): α-mangostin (α-M, 1), 3-isomangostin (2) 9-hydroxycalabaxanthone (3), γ-mangostin (γ-M, 4), gartanin (5), 8-deoxygartanin (6), garcinone C (7), norathyriol (8), 1,3,7-trihydroxy-2-prenylxanthone (9), 3,4,5,6-tetrahydroxyxanthone (10), 1,6,7-trihydroxyxanthone (11) and mangiferin (12). Amyloid fibril formation of V30M was induced by acidic pH and the amount of fibril was quantified using thioflavin T in the presence of 0–20 μM of the compounds. The EC50 values were calculated as previously described.
Thioflavin T assay was performed using V30M in [20 mM Tris-HCl pH 8.0 and 150 mM NaCl] and 10 mM stock solutions (ethanol) of xanthone derivatives. Prior to acid-mediated aggregation, 50 μL of V30M (100 μM) was incubated for 30 min in the presence of xanthone derivatives at room temperature. After the incubation, the pH was decreased to 4.5 by adding 450 μL of 50 mM sodium acetate pH 4.5. The sample was gently vortexed and incubated at 310 K for 96 h. At this time, the concentrations of V30M and the xanthone derivatives were 10 μM and 2.5-20 μM, respectively. The solution was 5.5-fold diluted with 200 mM Tris-HCl buffer (pH 8.0). Thioflavin T assays were performed via the addition of 10 mM thioflavin T to 1.8 μM TTR samples. The final concentration of thioflavin T was 20 μM. Fluorescence emission spectra were obtained with excitation and emission wavelengths of 440 and 484 nm, respectively. The fluorescence of the sample without incubation at pH 4.5 was used as a 100% control, and that of the sample in the absence of xanthone derivatives with incubation at pH 4.5 was used as a 0% control. The amyloid fibril inhibitory ratio (%) = 100 × [1 - (fluorescence at each concentration of xanthone derivatives - 100% control)/(0% control - 100% control)]. Amyloid fibril inhibitory curves were fitted using the 4-parameter logistic model by the least squares methods and at least 3 ligand concentrations were used[30]. EC50 was estimated according to this model.

V30M tetramer = target: T2, V30M tetramer (Homo sapiens, UniProt P02766, V50M); assay: Glutaraldehyde cross-linking assay of quaternary structural stability at acidic pH; assay type: biochemical; details: pH 4.5, 310 K, 10 days, 3.6 μM V30M, compound 5 and 50 μM, SDS-PAGE
T2 construct: made in house
Method: The effect of the selected compounds on the quaternary structural stability of V30M at acidic pH was assessed using glutaraldehyde cross-linking followed by SDS-PAGE as previously described.
Glutaraldehyde cross-linking experiments were performed as previously described with some minor modifications. The stock solutions of the selected compounds were prepared in ethanol. Prior to the acid-mediated tetramer dissociation, V30M in solution [20 mM Tris-Cl pH 8.0 and 150 mM NaCl] was incubated with the compounds at room temperature for 30 min. After the incubation period, a 2-fold volume of 0.1 M sodium acetate pH 4.5 was added, and then the sample was incubated at 310 K for 10 days. At this stage, the protein concentration was 3.6 μM, and the compound concentrations were 5 and 50 μM. After the incubation period, 50 μL aliquots of the incubated samples were mixed with 2.5 μL of 25% glutaraldehyde and incubated at room temperature for 4 min, and the reactions were terminated by the addition of 5 μL of sodium borohydrate (7% (w/v) in 0.1 N NaOH). The aliquots were then mixed with SDS sample buffer, boiled and resolved by SDS-PAGE. The protein bands were visualized by silver staining.

V30M = target: T3, V30M (Homo sapiens, UniProt P02766, V50M); assay: Intrinsic fluorescence quenching titration; assay type: binding; details: 2 μM TTR, excitation 280 nm, 0–20 μM γ-M
T3 construct: made in house
Method: (§1) V30M was titrated with various concentrations of γ-M. A previous study has shown that the binding to TTR induces quenching of the intrinsic fluorescence emission from TTR at 336 nm[22]. […] In addition, we performed a competitive binding assay using trans-resveratrol, which is known to bind to the T4-binding sites of TTR. […] For additional evidence, a pull-down assay was carried out using Sepharose 4B beads coupled with γ-M. V30M was detected in the Sepharose 4B-γ-M-coupled beads but not in Sepharose 4B beads alone or in Sepharose 4B beads alone with free γ-M (Fig. 2c).
(§2) The binding of γ-M to TTR was confirmed by an intrinsic emission fluorescence spectrum assay and a resveratrol competitive binding assay. For the intrinsic fluorescence, the spectra (300–400 nm) of 2 μM TTR in [50 mM Tris-HCl pH 7.5 and 150 mM NaCl] were recorded by exciting the protein at 280 nm[22]. […] The spectra were recorded at 0, 0.5, 2, 5 and 20 μM of γ-M. For the resveratrol competitive binding assay, the spectra (350–500 nm) of 2 μM TTR in [50 mM Tris-HCl pH 7.5 and 150 mM NaCl] were recorded by exciting trans-resveratrol at 320 nm[23]. The solutions of resveratrol and γ-M were sequentially added to the protein solution in the same manner as for the intrinsic fluorescence assay.

T4-binding sites of V30M = target: T4, T4-binding sites of V30M (Homo sapiens, UniProt P02766, V50M); assay: Resveratrol competitive binding assay; details: 2 μM TTR, 5 μM resveratrol, excitation 320 nm
T4 construct: made in house
Method: as §1, §2

COc1c(O)cc2oc3cc(O)c(CC=C(C)C)c(O)c3c(=O)c2c1CC=C(C)C [Compound 1, α-mangostin]
EC50 (V30M mutated TTR): 15 ± 0.75 µM
Inhibition ratio at 20 μM (V30M mutated TTR): 61 ± 4.7%
inhibition at 20 µM (V30M mutated TTR): 61%
tetramer fraction (V30M tetramer): increased in a dose-dependent manner

COc1c(O)cc2oc3cc4c(c(O)c3c(=O)c2c1CC=C(C)C)CCC(C)(C)O4 [Compound 2, 3-isomangostin]
EC50 (V30M mutated TTR): > 20 µM
Inhibition ratio at 20 μM (V30M mutated TTR): 32 ± 1.3%
inhibition at 20 µM (V30M mutated TTR): 32%

COc1c(O)cc2oc3cc4c(c(O)c3c(=O)c2c1CC=C(C)C)C=CC(C)(C)O4 [Compound 3, 9-hydroxycalabaxanthone]
EC50 (V30M mutated TTR): > 20 µM
Inhibition ratio at 20 μM (V30M mutated TTR): 29 ± 1.5%
inhibition at 20 µM (V30M mutated TTR): 29%

CC(C)=CCc1c(O)cc2oc3cc(O)c(O)c(CC=C(C)C)c3c(=O)c2c1O [Compound 4, γ-mangostin]
EC50 (V30M mutated TTR): 7 ± 0.6 µM
inhibition at 20 µM (V30M mutated TTR): 97 ± 1.3%
quenching of the intrinsic fluorescence emission from V30M (V30M): induced similar quenching
fluorescence intensity of resveratrol bound to V30M on addition of compound (T4-binding sites of V30M): significantly decreased
tetramer fraction (V30M tetramer): increased in a dose-dependent manner

CC(C)=CCc1c(O)c(CC=C(C)C)c2oc3c(O)ccc(O)c3c(=O)c2c1O [Compound 5, gartanin]
EC50 (V30M mutated TTR): > 20 µM
inhibition at 20 µM (V30M mutated TTR): 30 ± 0.79%

CC(C)=CCc1c(O)c(CC=C(C)C)c2oc3c(O)cccc3c(=O)c2c1O [Compound 6, 8-deoxygartanin]
inhibitory ability against amyloid fibril formation (V30M mutated TTR; up to 20 μM compound): did not exhibit the inhibitory ability

CC(C)=CCc1c(O)cc2oc3cc(O)c(O)c(CCC(C)(C)O)c3c(=O)c2c1O [Compound 7, garcinone C]
EC50 (V30M mutated TTR): 10 ± 0.3 µM
inhibition at 20 µM (V30M mutated TTR): 83 ± 0.23%

O=c1c2cc(O)c(O)cc2oc2cc(O)cc(O)c12 [Compound 8, norathyriol]
EC50 (V30M mutated TTR): 9.7 ± 0.48 µM
inhibition at 20 µM (V30M mutated TTR): 79 ± 0.49%

CC(C)=CCc1c(O)cc2oc3ccc(O)cc3c(=O)c2c1O [Compound 9, 1,3,7-trihydroxy-2-prenylxanthone]
EC50 (V30M mutated TTR): 13 ± 1.1 µM
inhibition at 20 µM (V30M mutated TTR): 67 ± 2.7%

O=c1c2ccc(O)c(O)c2oc2c(O)c(O)ccc12 [Compound 10, 3,4,5,6-tetrahydroxyxanthone]
EC50 (V30M mutated TTR): > 20 µM
inhibition at 20 µM (V30M mutated TTR): 25 ± 0.97%

O=c1c2cc(O)c(O)cc2oc2cccc(O)c12 [Compound 11, 1,6,7-trihydroxyxanthone]
EC50 (V30M mutated TTR): 14 ± 0.51 µM
inhibition at 20 µM (V30M mutated TTR): 64 ± 1.2%

O=c1c2cc(O)c(O)cc2oc2cc(O)c([C@@H]3O[C@H](CO)[C@@H](O)[C@H](O)[C@H]3O)c(O)c12 [Compound 12, mangiferin]
EC50 (V30M mutated TTR): > 20 µM
inhibition at 20 µM (V30M mutated TTR): 8.5 ± 2.1%

O=C(O)c1cc(-c2ccc(F)cc2F)ccc1O [diflunisal, reference compound]
inhibition at 20 µM (V30M mutated TTR): 97 ± 1.7%
